In patent US9957276B2, “CDK inhibitors” (G1 THERAPEUTICS, INC., priority 2010, dated 2018):

Legend:
[1] = molecular target: CDK2/cyclinE (Homo sapiens (Human), UniProt P24941); assay: CDK2/cyclinE kinase enzymatic assay (Caliper LabChip); format: biochemical; details: Table 2, class symbols; read-out: CDK2/CycE IC50
Method: (§1) Kinase enzymatic reactions were performed in 384-well microplates using a 12-channel Caliper LabChip instrument as a detection device. […] As substrate and product are separated, two peaks of fluorescence are observed. Change in the relative fluorescence intensity of the substrate and product peaks is the parameter measured, reflecting enzyme activity. In the presence of an inhibitor, the ratio between product and substrate is altered. The signal of the product decreases, while the signal of the substrate increases.
(§2) Potential inhibitor compounds (as HCl salts) were tested using 12-point dose response curves in […] at the Km for ATP. The IC50 of each compound was determined using GraphPad Prism.

[2] = molecular target: CDK4/CyclinD (Homo sapiens (Human), UniProt P11802); assay: CDK4/CyclinD kinase enzymatic assay (Caliper LabChip); format: biochemical; details: for selectivity for Cdk4/CycD1 over Cdk2/CycE: from the IC50 values
Method: as §1, §2

Chain of CDK4/CyclinD (P11802 whole entry, species assumed): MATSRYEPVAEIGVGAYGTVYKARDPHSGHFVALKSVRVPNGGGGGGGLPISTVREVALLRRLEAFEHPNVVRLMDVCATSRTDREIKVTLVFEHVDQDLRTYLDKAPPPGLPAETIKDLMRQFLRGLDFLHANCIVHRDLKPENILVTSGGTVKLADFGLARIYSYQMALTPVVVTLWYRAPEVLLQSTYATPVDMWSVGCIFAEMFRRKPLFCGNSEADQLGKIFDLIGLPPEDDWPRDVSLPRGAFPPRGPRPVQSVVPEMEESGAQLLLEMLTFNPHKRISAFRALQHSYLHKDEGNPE
Chain of CDK4/CyclinD (P24385 whole entry partner, species assumed): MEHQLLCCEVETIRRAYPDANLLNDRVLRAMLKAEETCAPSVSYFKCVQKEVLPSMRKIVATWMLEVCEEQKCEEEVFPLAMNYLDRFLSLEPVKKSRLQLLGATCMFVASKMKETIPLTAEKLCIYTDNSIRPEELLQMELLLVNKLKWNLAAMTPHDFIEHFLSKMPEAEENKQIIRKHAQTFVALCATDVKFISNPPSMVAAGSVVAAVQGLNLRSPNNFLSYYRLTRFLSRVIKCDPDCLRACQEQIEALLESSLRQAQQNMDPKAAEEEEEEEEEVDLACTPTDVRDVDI

Row | SMILES | IC50 [1] | IC50 ([2]; compounds as HCl salts, 12-point dose response, at the Km for ATP, three hours) | selectivity for Cdk4/CycD1 over Cdk2/CycE [2]
1 | CN1CCN(c2ccc(Nc3ncc4cc5n(c4n3)CCNC5=O)nc2)CC1 [Compound 1] | > 100 µM | 0.453 µM | 200 fold
2 | O=C1NCCn2c1cc1cnc(Nc3ccc(N4CCNCC4)cn3)nc12 [Compound 3] | – | – | 100 fold
3 | CN1CCn2c(cc3cnc(Nc4ccc(N5CCNCC5)cn4)nc32)C1=O [Compound 5] | > 100 µM | – | –
4 | CC(C)C1CNC(=O)c2cc3cnc(Nc4ccc(N5CCN(C(=O)OC(C)(C)C)CC5)cn4)nc3n21 (stereo not shown) [Compound 6] | > 100 µM | – | –
5 | CC(C)C1CNC(=O)c2cc3cnc(Nc4ccc(N5CCN(C)CC5)cn4)nc3n21 (stereo not shown) [Compound 7] | > 100 µM | – | –
6 | CC(C)[C@H]1CN(C)C(=O)c2cc3cnc(Nc4ccc(N5CCNCC5)cn4)nc3n21 [Compound 11] | > 100 µM | – | –
7 | CC(C)C[C@H]1CN(C)C(=O)c2cc3cnc(Nc4ccc(N5CCN(C)CC5)cn4)nc3n21 [Compound 14] | > 100 µM | – | –
8 | CC(C)C[C@H]1CN(C)C(=O)c2cc3cnc(Nc4ccc(N5CCNCC5)cn4)nc3n21 [Compound 15] | > 100 µM | – | –

The next lines start with results.

Row | IC50 [1] | SMILES | IC50 ([2]; compounds as HCl salts, 12-point dose response, at the Km for ATP, three hours) | selectivity for Cdk4/CycD1 over Cdk2/CycE [2]
9 | > 100 µM | CCC(C)[C@H]1CN(C)C(=O)c2cc3cnc(Nc4ccc(N5CCN(C)CC5)cn4)nc3n21 (stereo partly shown) [Compound 18] | – | –
10 | > 100 µM | CCC(C)[C@H]1CN(C)C(=O)c2cc3cnc(Nc4ccc(N5CCNCC5)cn4)nc3n21 (stereo partly shown) [Compound 19] | – | –
11 | > 100 µM | CN1CC2(CCCC2)n2c(cc3cnc(Nc4ccc(N5CCNCC5)cn4)nc32)C1=O [Compound 31] | – | –
12 | > 100 µM | CC(C)CC1CN(C)C(=O)c2cc3cnc(Nc4ccc(N5CCNCC5)cn4)nc3n21 (stereo not shown) [Compound 47] | – | –
13 | > 100 µM | CN1CCN(c2ccc(Nc3ncc4cc5n(c4n3)[C@H]3CCC[C@@H]3NC5=O)nc2)CC1 [Compound 48] | – | –
14 | 1 to 100 µM | O=C1N[C@H]2CCC[C@@H]2n2c1cc1cnc(Nc3ccc(N4CCNCC4)cn3)nc12 [Compound 49] | – | –
